# According to patent US12319655B2, “RAF kinase inhibitors and methods of use thereof” (Deciphera Pharmaceuticals, LLC, priority 2021, dated 2025):
# Experiments:
# [1] = target: C-Raf kinase (SEQ. ID NO: 3) (Homo sapiens (Human), UniProt P04049, Y340D/Y341D); experiment: Biochemical Assay for C-Raf (1); conditions: Table J, assay version (1); read-out: CRAF (1) IC50
# Description: Biochemical Assay for C-Raf (1)
# (§1) Activity of C-Raf kinase (SEQ. ID NO: 3) was determined spectroscopically using a coupled pyruvate kinase/lactate dehydrogenase assay that continuously monitors the ATP hydrolysis-dependent oxidation of NADH (e.g., Schindler et al., Science, 2000, 289, 1938-1942). Assays were conducted in 384-well plates (100 μL final volume) using 0.43 nM C-Raf (Sigma), 1.5 units pyruvate kinase, 2.1 units lactate dehydrogenase, 1 mM phosphoenol pyruvate, 0.28 mM NADH, 30.1 nM MEK (SignalChem), and 1 mM ATP in assay buffer (100 mM Tris, Ph 7.5, 15 mM MgCl2, 0.5 mM DTT, 0.1% octyl-glucoside, 0.002% (w/v) BSA, and 0.002% Triton X-100). Inhibition of C-Raf was measured by adding serial diluted test compound (final assay concentration of 1% DMSO). A decrease in absorption at 340 nm was monitored continuously for 6 h at 30° C. on a multi-mode microplate reader (BioTek). The reaction rate was calculated using the 4 to 5 h time frame. The reaction rate at each concentration of compound was converted to percent inhibition using controls (i.e., reaction with no test compound and reaction with a known inhibitor) and IC50 values were calculated by fitting a four-parameter sigmoidal curve to the data using Prism (GraphPad software).
# [2] = target: A-Raf kinase (SEQ. ID No: 1) (Homo sapiens (Human), UniProt P10398, Y301D/Y302D); experiment: Biochemical Assay for A-Raf (1); conditions: Table J, assay version (1); read-out: ARAF (1) IC50
# A-Raf kinase (SEQ. ID No: 1), sequence (P10398 other isoform, or with tags, fused parts or gaps Y301D (already in the parent)/Y302D (already in the parent)): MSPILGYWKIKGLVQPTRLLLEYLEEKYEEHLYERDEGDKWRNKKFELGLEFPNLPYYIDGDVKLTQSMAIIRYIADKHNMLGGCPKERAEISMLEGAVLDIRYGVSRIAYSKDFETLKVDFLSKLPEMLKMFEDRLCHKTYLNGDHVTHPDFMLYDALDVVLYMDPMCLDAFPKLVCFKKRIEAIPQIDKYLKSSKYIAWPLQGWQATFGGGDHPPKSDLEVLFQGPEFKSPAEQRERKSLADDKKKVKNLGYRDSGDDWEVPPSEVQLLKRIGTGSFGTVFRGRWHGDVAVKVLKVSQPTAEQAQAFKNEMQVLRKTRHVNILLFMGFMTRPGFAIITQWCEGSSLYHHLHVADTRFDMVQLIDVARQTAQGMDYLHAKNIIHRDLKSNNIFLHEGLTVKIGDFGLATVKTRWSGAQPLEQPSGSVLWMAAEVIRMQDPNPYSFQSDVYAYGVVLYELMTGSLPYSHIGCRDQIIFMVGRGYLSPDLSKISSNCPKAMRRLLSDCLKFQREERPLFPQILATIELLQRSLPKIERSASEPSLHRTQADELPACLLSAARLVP
# Description: Biochemical Assay for A-Raf (1)
# as §1, with “A-Raf” for “C-Raf”, “No: 1)” for “NO: 3)”, “5.55” for “0.43”, “pH” for “Ph”
# [3] = target: B-Raf (V600E) (SEQ. ID NO: 4) kinase (Homo sapiens (Human), UniProt P15056, V600E); experiment: Biochemical Assay for B-Raf (V600E) (1); conditions: Table J, BRAF V600E, assay version (1); read-out: BRAF VE (1) IC50
# B-Raf (V600E) (SEQ. ID NO: 4) kinase, sequence (P15056 416-766 V600E): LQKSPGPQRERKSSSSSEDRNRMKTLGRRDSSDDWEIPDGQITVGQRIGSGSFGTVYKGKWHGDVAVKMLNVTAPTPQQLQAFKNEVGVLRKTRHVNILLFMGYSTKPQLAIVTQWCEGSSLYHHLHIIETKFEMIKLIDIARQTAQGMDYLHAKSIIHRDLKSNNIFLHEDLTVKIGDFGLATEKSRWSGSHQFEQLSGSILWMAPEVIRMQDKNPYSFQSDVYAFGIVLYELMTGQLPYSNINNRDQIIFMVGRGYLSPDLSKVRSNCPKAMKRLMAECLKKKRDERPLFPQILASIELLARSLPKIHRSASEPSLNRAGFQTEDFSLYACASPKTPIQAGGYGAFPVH
# Description: Biochemical Assay for B-Raf (V600E) (1)
# Activity of B-Raf (V600E) (SEQ. ID NO: 4) kinase was determined spectroscopically using a coupled pyruvate kinase/lactate dehydrogenase assay that continuously monitors the ATP hydrolysis-dependent oxidation of NADH (e.g., Schindler et al., Science, 2000, 289, 1938-1942). Assays were conducted in 384-well plates (100 μL final volume) using 0.03 nM B-Raf (SignalChem), 1.5 units pyruvate kinase, 2.1 units lactate dehydrogenase, 1 mM phosphoenol pyruvate, 0.28 mM NADH, 30.1 nM MEK (SignalChem), and 1 mM ATP in assay buffer (100 mM Tris, Ph 7.5, 15 mM MgCl2, 0.5 mM DTT, 0.1% octyl-glucoside, 0.002% (w/v) BSA, and 0.002% Triton X-100). Inhibition of B-Raf (V600E) was measured by adding serial diluted test compound (final assay concentration of 1% DMSO). A decrease in absorption at 340 nm was monitored continuously for 6 h at 30° C. on a multi-mode microplate reader (BioTek). The reaction rate was calculated using the 3 to 4 h time frame. The reaction rate at each concentration of compound was converted to percent inhibition using controls (i.e., reaction with no test compound and reaction with a known inhibitor) and IC50 values were calculated by fitting a four-parameter sigmoidal curve to the data using Prism (GraphPad software).
# [4] = target: B-Raf kinase (SEQ. ID NO: 2) (Homo sapiens (Human), UniProt P15056); experiment: Biochemical Assay for B-Raf (1); conditions: Table J, assay version (1); read-out: BRAF (1) IC50
# B-Raf kinase (SEQ. ID NO: 2), sequence (P15056 416-766): as the sequence (P15056 416-766 V600E) above, with E185V counted along it
# Description: Biochemical Assay for B-Raf (1)
# as §1, with “B-Raf” for “C-Raf”, “2)” for “3)”, “0.13” for “0.43”
# C-Raf kinase (SEQ. ID NO: 3), sequence (P04049 307-648 Y340D/Y341D): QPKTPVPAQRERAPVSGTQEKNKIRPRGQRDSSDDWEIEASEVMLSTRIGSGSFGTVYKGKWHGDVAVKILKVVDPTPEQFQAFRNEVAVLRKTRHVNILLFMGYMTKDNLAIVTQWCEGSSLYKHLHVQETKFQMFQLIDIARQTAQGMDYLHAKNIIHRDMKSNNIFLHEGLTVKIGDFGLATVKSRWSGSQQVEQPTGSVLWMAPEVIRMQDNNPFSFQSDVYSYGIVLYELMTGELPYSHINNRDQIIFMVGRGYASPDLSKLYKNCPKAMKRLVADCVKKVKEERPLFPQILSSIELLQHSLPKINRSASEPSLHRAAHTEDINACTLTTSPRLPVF
Structure (SMILES),IC50 [1] [nM],IC50 [2] [nM],IC50 [3] [nM],IC50 [4] [nM]
CC(=O)Nc1cc(-c2cc(-c3cc(NC(=O)c4ccnc(C(F)(F)F)c4)ccc3C)cc(C(C)(C)O)n2)ccn1 [Example 33],100 to 500,1000 to 10000,≤ 100,1000 to 10000
CC(=O)Nc1cc(-c2cc(-c3cc(NC(=O)c4ccnc(C(F)(F)F)c4)ccc3C)nn(C)c2=O)ccn1 [Example 34],1000 to 10000,1000 to 10000,1000 to 10000,1000 to 10000
CNC(=O)c1cc(-c2cc(-c3cc(NC(=O)c4ccnc(C(F)(F)F)c4)ccc3C)nn(C)c2=O)ccn1 [Example 51],1000 to 10000,1000 to 10000,1000 to 10000,1000 to 10000
CNC(=O)c1cc(-c2cc(-c3cc(NC(=O)c4ccnc(C(F)(F)F)c4)ccc3C)cc(=O)n2C)ccn1 [Example 67],500 to 1000,1000 to 10000,≤ 100,1000 to 10000
Cc1ncc(NC(=O)c2ccnc(C(C)(C)C#N)c2)cc1-c1nccc(-c2ccnc3c2CC(=O)N3)n1 [Example 93],500 to 1000,1000 to 10000,100 to 500,1000 to 10000
CNC(=O)c1cc(-c2cc(-c3cc(NC(=O)c4ccnc(C(F)F)c4)c(F)cc3C)cc(=O)n2C)ccn1 [Example 115],1000 to 10000,1000 to 10000,100 to 500,1000 to 10000
COCCNc1cc(-c2cncc(-c3cc(NC(=O)c4ccnc(C(F)(F)F)c4)ccc3C)n2)ccn1 [Example 119],100 to 500,1000 to 10000,≤ 100,100 to 500
CNC(=O)c1cc(-c2cc(-c3cc(NC(=O)c4cc(C(F)(F)F)ccn4)ccc3C)ccn2)ccn1 [Example 126],≤ 100,1000 to 10000,≤ 100,100 to 500
COCC(=O)Nc1cc(-c2nccc(-c3cc(NC(=O)c4ccnc(C(F)(F)F)c4)ccc3C)n2)ccn1 [Example 137],≤ 100,1000 to 10000,≤ 100,≤ 100
CNC(=O)c1cc(-c2cncc(-c3cc(NC(=O)c4cc(C(F)(F)F)cc(CN(C)C)n4)ccc3C)n2)ccn1 [Example 147],100 to 500,1000 to 10000,≤ 100,500 to 1000
Cc1ccc(NC(=O)c2cc(C(F)(F)F)ccn2)cc1-c1cncc(-c2ccnc(NC(=O)C3CC3)c2)n1 [Example 167],≤ 100,1000 to 10000,≤ 100,≤ 100
CNC(=O)c1cc(-c2cncc(-c3cc(NC(=O)c4ccnc(C(C)(C)C#N)c4)c(F)cc3C)n2)ccn1 [Example 170],100 to 500,1000 to 10000,≤ 100,100 to 500
Cc1ccc(NC(=O)c2ccnc(C3(C#N)CC3)c2)cc1-c1cncc(-c2ccnc(NC(=O)C3CC3)c2)n1 [Example 183],≤ 100,100 to 500,≤ 100,≤ 100
Cc1ccc(NC(=O)c2cc(C(F)(F)F)ccn2)cc1-c1ccnc(-c2ccnc(NC(=O)C3CC3)c2)n1 [Example 188],≤ 100,1000 to 10000,≤ 100,≤ 100
Cc1ccc(NC(=O)c2ccnc(C(C)(C)C#N)c2)cc1-c1ccnc(-c2ccnc(NC(=O)C(C)(C)C)c2)c1 [Example 206],100 to 500,1000 to 10000,≤ 100,100 to 500
COC(C)(C)C(=O)Nc1cc(-c2cccc(-c3cc(NC(=O)c4ccnc(C(C)(C)C#N)c4)cnc3C)c2)ncn1 [Example 208],500 to 1000,1000 to 10000,100 to 500,1000 to 10000
COC(C)(C)C(=O)Nc1cc(-c2cc(-c3cc(NC(=O)c4ccnc(C(C)(C)C#N)c4)cnc3C)ccn2)ccn1 [Example 209],500 to 1000,1000 to 10000,100 to 500,1000 to 10000
COC(C)(C)C(=O)Nc1cc(-c2cccc(-c3cc(NC(=O)c4ccnc(C(C)(C)C#N)c4)ccc3C)c2)ncn1 [Example 211],500 to 1000,1000 to 10000,≤ 100,500 to 1000
Cc1ncc(NC(=O)c2ccnc(C(C)(C)C#N)c2)cc1-c1ccnc(-c2ccnc(NC(=O)C(C)(C)C)c2)c1 [Example 228],100 to 500,1000 to 10000,≤ 100,100 to 500
Cc1ccc(NC(=O)c2ccnc(C(C)(C)F)c2)cc1-c1nccc(-c2ccnc(NC(=O)C3CC3)c2)n1 [Example 232],≤ 100,100 to 500,≤ 100,≤ 100
CNC(=O)c1cc(-c2cccc(-c3cc(NC(=O)c4ccnc(C(C)(C)C#N)c4)ccc3C)n2)ccn1 [Example 234],≤ 100,1000 to 10000,≤ 100,≤ 100
COC1(C(=O)Nc2cc(-c3cccc(-c4cc(NC(=O)c5ccnc(C(C)(C)C#N)c5)ccc4C)c3)ncn2)CC1 [Example 243],100 to 500,1000 to 10000,≤ 100,500 to 1000
Cc1cc(F)c(NC(=O)c2ccnc(C(C)(C)C#N)c2)cc1-c1nccc(-c2ccnc(NC(=O)C3CC3)c2)n1 [Example 244],≤ 100,100 to 500,≤ 100,≤ 100
CCOc1ncc(-c2cc(NC(=O)c3ccnc(C(C)(C)C#N)c3)ccc2C)cc1-c1ccnc(C(=O)NC)c1 [Example 260],≤ 100,1000 to 10000,≤ 100,100 to 500
Cc1cc(C(=O)Nc2cnc(C)c(-c3nccc(-c4ccnc(NC(=O)C5CC5)c4)n3)c2)ccn1 [Example 296],100 to 500,1000 to 10000,≤ 100,100 to 500
Cc1ncc(NC(=O)C2CCN(C)C2)cc1-c1nccc(-c2ccnc(NC(=O)C3CC3)c2)n1 (centres unmarked) [Example 334],1000 to 10000,1000 to 10000,1000 to 10000,1000 to 10000
